Laboratory results: BindingDB's records for doi:10.1007/s10822-022-00478-x (Roche Innovation Center Basel, F. Hoffmann-La Roche Ltd., 2022)

Target: cAMP and cAMP-inhibited cGMP 3',5'-cyclic phosphodiesterase 10A (Homo sapiens, UniProt Q9Y233)
Assay: PDE10A assay
Summary of the method: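 Scintillation proximity readout of [3H]cGMP hydrolysis (50 nM final substrate, 15 min) by 2 ng/well human PDE10A after 15 min compound preincubation at RT, pH 7.5 with MgCl2. Four-parameter logistic fit gave IC50, reported as pIC50.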

Row | IC50 [nM] | SMILES
1 | 2.86 | CCc1cnc(C)n2nc(CCc3nc(N4CCCC4)nn3C)nc12 [Roche-Dataset for PDE10A, Compound 584]
2 | 423 | CN(C)c1nc(OCc2cc3ccccn3n2)nc2ccc(Cl)cc12 [Roche-Dataset for PDE10A, Compound 586]
3 | 4.05 | Cc1nc2cc(Cl)ccc2nc1OCc1nc(-c2ccccc2)cn1C [Roche-Dataset for PDE10A, Compound 587]
4 | 1520 | O=C(NCCC(=O)N1CCOCC1)c1nc(C2CC2)cnc1Nc1cncnc1 [Roche-Dataset for PDE10A, Compound 591]
5 | 10 | O=C(Nc1ccn2nc(-c3ccccc3)nc2c1)c1onc2ccc(Br)cc12 [Roche-Dataset for PDE10A, Compound 592]
6 | 23 | O=C(Nc1ccn(CC2CC2)n1)c1nc(C2CC2)ccc1Nc1cncnc1 [Roche-Dataset for PDE10A, Compound 593]
7 | 326 | Cc1ncc(C)n2nc(/C=C/c3nc(N4CCCC4)cn3C)nc12 [Roche-Dataset for PDE10A, Compound 596]
8 | 50 | O=C(Nc1ccn(CCO)n1)c1nc(C2CC2)ccc1Nc1cncnc1 [Roche-Dataset for PDE10A, Compound 597]
9 | 9.77 | Cn1cc(-c2ccccc2)nc1COc1cnc2cc(Cl)ccc2n1 [Roche-Dataset for PDE10A, Compound 598]
10 | 1130 | CCc1nc(CNC(=O)c2cnn(C)c2C(=O)Nc2ccn3cc(-c4ccccc4)nc3n2)cs1 [Roche-Dataset for PDE10A, Compound 601]
11 | 26 | CCOc1cccc(NC(=O)c2nc(C3CC3)cnc2Nc2cncnc2)c1 [Roche-Dataset for PDE10A, Compound 602]
12 | 6.39 | O=C(Nc1ccn(CC(F)(F)F)n1)c1nc(C2CC2)ccc1Nc1cncnc1 [Roche-Dataset for PDE10A, Compound 603]
13 | 3.28 | Cc1ncc(C2CC2)c2nc(CCc3nc(N4CCCC4)nn3C)nn12 [Roche-Dataset for PDE10A, Compound 605]
14 | 2350 | O=C(Nc1ccn2nc(-c3ccccc3)nc2c1)c1ccno1 [Roche-Dataset for PDE10A, Compound 606]
15 | 1.93 | O=C(Nc1cnoc1-c1ccccc1)c1nc(C2CC2)ccc1Nc1cncnc1 [Roche-Dataset for PDE10A, Compound 607]
16 | 1380 | COc1ccc(Cl)cc1C(=O)Nc1cc(-c2ccccn2)nn1C [Roche-Dataset for PDE10A, Compound 608]
17 | 1590 | Cc1ncc(C)n2nc(CCc3nc(C(=O)N(C)C)cn3C)nc12 [Roche-Dataset for PDE10A, Compound 609]
18 | 52 | Cc1ccc(Nc2cncnc2)c(C(=O)Nc2ccn([C@]34C[C@H]5C[C@H](C[C@H](C5)C3)C4)n2)n1 [Roche-Dataset for PDE10A, Compound 610]
19 | 1470 | CN(C)c1nc(/C=C/c2nc(Br)cs2)nc2ccc(Cl)cc12 [Roche-Dataset for PDE10A, Compound 612]
20 | 69 | O=C(Nc1cnn(Cc2ccccc2)c1)c1nc(C2CC2)ccc1Nc1cncnc1 [Roche-Dataset for PDE10A, Compound 614]
21 | 123 | Cc1c(Cl)cc(C(F)(F)F)c2nc(CCc3nc(I)nn3C)nn12 [Roche-Dataset for PDE10A, Compound 615]
22 | 46 | Cc1ncc(C)n2nc(/C=C/c3nc(-c4cc[nH]n4)nn3C)nc12 [Roche-Dataset for PDE10A, Compound 618]

Row | IC50 [nM] | SMILES
23 | 390 | CNC(=O)c1cc2[nH]c(-c3ccccc3)nc2cc1NC(=O)c1cc[nH]n1 [Roche-Dataset for PDE10A, Compound 619]
24 | 0.09 | CNC(=O)c1cc2[nH]c(-c3ccccc3)nc2cc1NC(=O)c1nc(C2CC2)ccc1Nc1cncnc1 [Roche-Dataset for PDE10A, Compound 621]
25 | 5.89 | CC(C)Cn1ccc(NC(=O)c2nc(C3CC3)ccc2Nc2cncnc2)n1 [Roche-Dataset for PDE10A, Compound 624]
26 | 2.3 | Cc1ncc(C)n2nc(CCc3nc(N4CCCC4)nn3C)nc12 [Roche-Dataset for PDE10A, Compound 626]
27 | 1230 | O=C(Nc1ccnc(Cl)n1)c1cn(-c2ccc3ccccc3n2)cn1 [Roche-Dataset for PDE10A, Compound 627]
28 | 162 | Cc1ncc(C)n2nc(/C=C/c3ncn(-c4ccccc4)n3)nc12 [Roche-Dataset for PDE10A, Compound 629]
29 | 273 | O=C(NCc1nccn1Cc1ccccc1)c1nc(C2CC2)cnc1Nc1cncnc1 [Roche-Dataset for PDE10A, Compound 631]
30 | 19 | O=C(Nc1ccn(C2CCCCC2)n1)c1nc(C2CC2)ccc1Nc1cncnc1 [Roche-Dataset for PDE10A, Compound 632]
31 | 4190 | COc1cnc(C)n2c(CCc3nc(N4CCCC4)nn3C)nnc12 [Roche-Dataset for PDE10A, Compound 633]
32 | 26 | Cn1nc(-c2ccc(C(F)(F)F)cn2)cc1NC(=O)c1c(C(=O)N2CCC2)cnn1C [Roche-Dataset for PDE10A, Compound 634]
33 | 18 | O=C(Nc1ccn(S(=O)(=O)C(F)(F)F)n1)c1nc(C2CC2)ccc1Nc1cncnc1 [Roche-Dataset for PDE10A, Compound 635]
34 | 295 | Cn1nc(-c2ccccn2)cc1NC(=O)c1cc(Br)c[nH]c1=O [Roche-Dataset for PDE10A, Compound 636]
35 | 14 | COCCn1ccc(NC(=O)c2nc(C3CC3)ccc2Nc2cncnc2)n1 [Roche-Dataset for PDE10A, Compound 640]
36 | 1430 | O=C(N[C@@H](CO)Cc1ccccc1)c1nc(C2CC2)cnc1Nc1cncnc1 [Roche-Dataset for PDE10A, Compound 641]
37 | 46 | O=C(Nc1ccnn1CC(F)F)c1nc(C2CC2)ccc1Nc1cncnc1 [Roche-Dataset for PDE10A, Compound 642]
38 | 14 | CCCn1ccc(NC(=O)c2nc(C3CC3)ccc2Nc2cncnc2)n1 [Roche-Dataset for PDE10A, Compound 643]
39 | 26 | Cn1cc(-c2ccccc2)nc1COc1nc2ccccc2nc1C(F)(F)F [Roche-Dataset for PDE10A, Compound 644]
40 | 202 | Cc1ncc(C)n2nc(/C=C/c3nc(Br)cn3-c3ccccc3)nc12 [Roche-Dataset for PDE10A, Compound 648]
41 | 42 | CN(c1nc2cc(NC(=O)c3c(C(=O)O)cnn3C)ccn2n1)C1CC1 [Roche-Dataset for PDE10A, Compound 649]
42 | 114 | CNC(=O)c1cc2[nH]c(-c3ccccc3)nc2cc1NC(=O)c1cc(C(C)(C)C)nn1C [Roche-Dataset for PDE10A, Compound 650]
43 | 8.76 | CN(C)c1nc2ccc(NC(=O)c3c(C(=O)N4CCC4)cnn3C)cn2n1 [Roche-Dataset for PDE10A, Compound 652]
44 | 375 | O=C(Nc1cc(C2CCCC2)n[nH]1)c1nc(C2CC2)ccc1Nc1cncnc1 [Roche-Dataset for PDE10A, Compound 653]

Row | IC50 [nM] | SMILES
45 | 575 | CCn1nccc1NC(=O)c1ccc2cc(-c3ccccc3)nn2c1 [Roche-Dataset for PDE10A, Compound 654]
46 | 10000 | Cn1nc(-c2ccccn2)cc1NC(=O)c1cccc2c1OCCO2 [Roche-Dataset for PDE10A, Compound 655]
47 | 62 | CNC(=O)c1cnn(C)c1C(=O)Nc1ccn2cc(-c3cccc(F)c3)nc2n1 [Roche-Dataset for PDE10A, Compound 656]
48 | 34 | Cc1ncc(Br)c2nc(CCc3nc(N4CCCC4)nn3C)nn12 [Roche-Dataset for PDE10A, Compound 658]
49 | 2720 | COC(=O)c1cccnc1C(=O)Nc1ccn2nc(-c3ccccc3)nc2c1 [Roche-Dataset for PDE10A, Compound 659]
50 | 954 | O=C(NC[C@@H]1[C@@H](c2ccccc2)C1(F)F)c1nc(C2CC2)cnc1Nc1cncnc1 [Roche-Dataset for PDE10A, Compound 661]
51 | 10000 | Cn1nc(-c2ccccn2)cc1NC(=O)c1ccn(CC(F)(F)F)n1 [Roche-Dataset for PDE10A, Compound 662]
52 | 9.41 | Cc1c(Cl)cc(Cl)c2nc(CCc3cn4ccccc4n3)nn12 [Roche-Dataset for PDE10A, Compound 663]
53 | 8.3 | Cn1ncc(C(=O)N2CCC2)c1C(=O)Nc1cc(-c2ccccn2)n[nH]1 [Roche-Dataset for PDE10A, Compound 664]
54 | 822 | O=C(NCCCS(=O)(=O)c1ccccc1)c1nc(C2CC2)cnc1Nc1cncnc1 [Roche-Dataset for PDE10A, Compound 665]
55 | 2380 | CCOc1ccccc1C(=O)Nc1cc(-c2ccccn2)nn1C [Roche-Dataset for PDE10A, Compound 666]
56 | 13 | O=C(Nc1ccccc1C(=O)C1CCCCC1)c1nc(C2CC2)cnc1Nc1cncnc1 [Roche-Dataset for PDE10A, Compound 667]
57 | 100 | O=C(NCc1ccc(C(F)(F)F)cc1)c1nc(C2CC2)cnc1Nc1cncnc1 [Roche-Dataset for PDE10A, Compound 668]
58 | 80 | Cn1ncc(C(=O)N2CCC2)c1C(=O)Nc1ccn(Cc2cn(-c3ccc(Cl)c(Cl)c3)cn2)n1 [Roche-Dataset for PDE10A, Compound 669]
59 | 11 | COc1cnc(C)n2nc(CCc3nc(N4CCCC4)nn3C)nc12 [Roche-Dataset for PDE10A, Compound 671]
60 | 7.01 | Cc1ncc(C(C)C)c2nc(CCc3nc(N4CCCC4)nn3C)nn12 [Roche-Dataset for PDE10A, Compound 672]
61 | 228 | CNC(=O)c1cn(C)c(CCc2nc3c(C)ncc(C)n3n2)n1 [Roche-Dataset for PDE10A, Compound 675]
62 | 439 | Cn1nc(C2CCCC2)cc1NC(=O)c1nc(C2CC2)ccc1Nc1cncnc1 [Roche-Dataset for PDE10A, Compound 677]
63 | 929 | Cc1cn2nc(CCc3nc(N4CCCC4)nn3C)nc2cn1 [Roche-Dataset for PDE10A, Compound 678]
64 | 2360 | O=C(Nc1ccc2cc(-c3ccccc3)nn2c1)c1ccno1 [Roche-Dataset for PDE10A, Compound 679]
65 | 53 | O=C(NCc1cn(-c2ccccc2)cn1)c1nc(C2CC2)cnc1Nc1cncnc1 [Roche-Dataset for PDE10A, Compound 682]
